# Patent US20090226952A1, “SCREENING METHOD FOR COMPOUNDS WITH A[…]” (Isis Innovation Limited, priority 2005, published 2009)
# Entries after “also recorded” stand apart in the source; their conditions may differ.
# How the values were obtained:
# [1] = test system: transient working neuronal assemblies in in vitro hippocampal slices; experiment: Optical imaging with voltage sensitive dye Di-4-ANEPPS (ΔF/F) of paired-pulse stimulated hippocampal slices; format: cell-based, rat; settings: for time for which neurons remain activated / return to resting baseline after peak activation following the second stimulating pulse / effect on population activity / prolongation of activation of the neuronal assembly after the second pulse: optical imaging; for time for which neurons remain activated / return to resting baseline after peak activation following the second stimulating pulse: morphine 10-100 μM, gabapentin 100-150 μM, thiopental 80-150 μM, propofol 10-50 μM, control returns within 60 ms; for effect on population activity / prolongation of activation of the neuronal assembly after the second pulse: vs control ACSF; for optical ΔF/F peak 1 value vs control / optical ΔF/F peak 2 value vs control: paired t-test n=6; for time from peak to half peak activity, peak 2 (t3−t4), vs control: ΔF/F data
# Method: (§1) In the study, collective synchronised neuronal activity, i.e. working neuronal assemblies^3, were recorded while monitoring in parallel the underlying synaptic electrical activity (FIG. 1a). Accordingly, the use of the voltage sensitive dye, Di-4-ANEPPS, was combined with standard electrophysiological field potential recordings to measure the excitatory post-synaptic potentials (EPSPs). Under control conditions in physiological saline, electrical stimuli in a paired-pulse paradigm^18 were applied to the Schaffer Collaterals of in vitro hippocampal slices.
# (§2) Following terminal anaesthesia using halothane, 400 μm transverse hippocampal slices from 2 week Wistar rats were obtained and left to rest for one hour in a high humidity chamber with oxygenated artificial cerebrospinal fluid (ACSF) (in mM: 124 NaCl, 22 NaHCO3, 10 glucose, 5 KCl, 2 CaCl2, 1.25 MgSO4, 1.25 NaH2PO4) before being submersed in dye solution (4% dye stock solution (in mM: 0.2 mM Di-4-ANEPPS (Molecular Probes, Oregon, USA) in 2.7% ethanol, 0.13% Cremaphor EL), 48% fetal bovine serum and 24% ACSF and 24% ACSF cellulose) for 25 minutes followed by a further one hour rest in the humidity chamber with oxygenated ACSF.
# (§3) Electrical stimulation (paired pulse 8-10V, 60 ms interval, 0.1 ms duration) was generated by an isolated stimulator (Digitimer Ltd, UK) via a bipolar electrode (FHC, Maine, USA) and positioned just above the CA3 region. In this way, paired pulses were applied along the Shaffer Collaterals so as to elicit a spreading depolarising wave that formed from the point of stimulation and moved along the pathway towards the CA1 region. A halogen lamp provided the excitatory wavelengths for the dye (through a λ=530±10 nm filter) while the emission was captured on a 2 mm×3 mm CCD sensor (MiCAM01, BrainVision, Tokyo, Japan) through an absorption filter (λ=590 nm). Optical recordings were acquired at a rate of 0.7 ms frame^−1 for 682 frames. 16 optical recordings were averaged for each experimental condition to reduce the effects of dye bleaching and increase the signal-to-noise ratio. Analysis included ΔF/F calculations and a 5×5×3 Gaussian matrix filter (BrainVision Analysis software and Igor Pro 5, Wavemetrics, USA). As indicated above, such optical imaging was combined with standard electrophysiological field potential recordings to measure the excitory post synaptic potentials (EPSPs). […] All statistical comparisons were performed using student t-test of paired samples, n=6; 95% confidence interval.
# [2] = test system: in vitro hippocampal slices (Schaffer Collaterals, excitatory post-synaptic potentials); experiment: Electrophysiological field potential (EPSP) recordings in paired-pulse stimulated hippocampal slices; format: cell-based, rat; settings: for time from peak to half peak activity, peak 2 (t3−t4), vs control: EPSP data; for paired-pulse facilitation in EPSP recordings, treatment vs control / EPSP peak 1 value vs control / EPSP peak 2 value vs control: morphine 10-100 μM, gabapentin 100-150 μM, thiopental 80-150 μM, propofol 10-50 μM; for EPSP peak 1 value vs control / EPSP peak 2 value vs control: paired t-test n=6
# Method: as §1, §2, §3
SMILES,time for which neurons remain activated / return to resting baseline after peak activation following the second stimulating pulse [1],"time from peak to half peak activity, peak 2 (t3−t4), vs control [2]","paired-pulse facilitation in EPSP recordings, treatment vs control [2]",EPSP peak 1 value vs control [2],EPSP peak 2 value vs control [2],"paired-pulse facilitation in ΔF/F recordings, treatment vs control [1]",effect on population activity / prolongation of activation of the neuronal assembly after the second pulse [1],optical ΔF/F peak 1 value vs control [1],optical ΔF/F peak 2 value vs control [1],"time from peak to half peak activity, peak 2 (t3−t4), vs control [1]"
CN1CC[C@]23c4c5ccc(O)c4O[C@H]2[C@@H](O)C=C[C@H]3[C@H]1C5 [morphine],≤ 60 ms,–,–,–,–,–,–,–,–,–
"CC(C)c1cccc(C(C)C)c1O [propofol, 2,6-diisopropylphenol]",–,low statistical difference,did not significantly differ,significantly reduced,significantly reduced,did not significantly change,prolonged activation,did not differ significantly,significant reduction,very highly significant differences
NCC1(CC(=O)O)CCCCC1 [gabapentin],≤ 60 ms,no significant difference,no significant difference,not significantly changed,not significantly changed,–,not substantially altered; also recorded: no such effect,–,significant difference,no significant difference
"CCCC(C)C1(CC)C(=O)NC(=S)NC1=O (stereo not shown) [thiopental, 5-ethyl-5-(1-methylbutyl)-2-thiobarbituricacid]",up to 500 ms,no significant change,abolished,significantly reduced,significantly reduced,abolished,prolonged activation,did not differ significantly,significant reduction,highly significant
